Measured values: ChEMBL document CHEMBL1909046, “DrugMatrix in vitro pharmacology data”

Columns and labels:
[1] = DRUGMATRIX: Glutamate, NMDA, Phencyclidine radioligand binding (ligand: [3H] TCP); type: cell membranes, Rattus norvegicus, Wistar, Cerebral cortex, Membrane; settings: Not Active = under 50% inhibition at 10 µM
[2] = DRUGMATRIX: GABAA, Flunitrazepam, Central radioligand binding (ligand: [3H] Flunitrazepam); type: cell membranes, Rattus norvegicus, Wistar, Brain, Membrane; settings: Not Active = under 50% inhibition at 10 µM
[3] = DRUGMATRIX: Nicotinic Acetylcholine radioligand binding (ligand: [125I] Epibatidine); type: cell membranes, Membrane; settings: imr-32; Not Active = under 50% inhibition at 10 µM
[4] = molecular target: T1, C-X-C chemokine receptor type 1 (Homo sapiens, UniProt P25024); also: in other assays of this panel Not Active means under 50% inhibition at 10 µM
T1 sequence (P25024 whole entry): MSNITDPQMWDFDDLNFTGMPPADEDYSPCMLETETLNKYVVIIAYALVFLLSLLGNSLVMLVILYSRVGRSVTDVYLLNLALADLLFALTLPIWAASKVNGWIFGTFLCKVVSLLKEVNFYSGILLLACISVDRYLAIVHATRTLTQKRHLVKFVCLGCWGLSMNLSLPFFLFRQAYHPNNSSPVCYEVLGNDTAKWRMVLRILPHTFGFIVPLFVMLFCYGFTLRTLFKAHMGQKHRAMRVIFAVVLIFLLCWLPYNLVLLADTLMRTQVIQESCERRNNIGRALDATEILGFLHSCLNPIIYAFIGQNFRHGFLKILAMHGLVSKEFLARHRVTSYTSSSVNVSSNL

[5] = molecular target: T2, 3-hydroxy-3-methylglutaryl-coenzyme A reductase (Homo sapiens, UniProt P04035); design: species or system Escherichia coli;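 also: enzyme inhibition assay of HMG-CoA reductase using radiolabeled [14C]HMG-CoA as substrate; in other assays of this panel Not Active means under 50% inhibition at 10 µM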
T2 sequence (P04035 whole entry): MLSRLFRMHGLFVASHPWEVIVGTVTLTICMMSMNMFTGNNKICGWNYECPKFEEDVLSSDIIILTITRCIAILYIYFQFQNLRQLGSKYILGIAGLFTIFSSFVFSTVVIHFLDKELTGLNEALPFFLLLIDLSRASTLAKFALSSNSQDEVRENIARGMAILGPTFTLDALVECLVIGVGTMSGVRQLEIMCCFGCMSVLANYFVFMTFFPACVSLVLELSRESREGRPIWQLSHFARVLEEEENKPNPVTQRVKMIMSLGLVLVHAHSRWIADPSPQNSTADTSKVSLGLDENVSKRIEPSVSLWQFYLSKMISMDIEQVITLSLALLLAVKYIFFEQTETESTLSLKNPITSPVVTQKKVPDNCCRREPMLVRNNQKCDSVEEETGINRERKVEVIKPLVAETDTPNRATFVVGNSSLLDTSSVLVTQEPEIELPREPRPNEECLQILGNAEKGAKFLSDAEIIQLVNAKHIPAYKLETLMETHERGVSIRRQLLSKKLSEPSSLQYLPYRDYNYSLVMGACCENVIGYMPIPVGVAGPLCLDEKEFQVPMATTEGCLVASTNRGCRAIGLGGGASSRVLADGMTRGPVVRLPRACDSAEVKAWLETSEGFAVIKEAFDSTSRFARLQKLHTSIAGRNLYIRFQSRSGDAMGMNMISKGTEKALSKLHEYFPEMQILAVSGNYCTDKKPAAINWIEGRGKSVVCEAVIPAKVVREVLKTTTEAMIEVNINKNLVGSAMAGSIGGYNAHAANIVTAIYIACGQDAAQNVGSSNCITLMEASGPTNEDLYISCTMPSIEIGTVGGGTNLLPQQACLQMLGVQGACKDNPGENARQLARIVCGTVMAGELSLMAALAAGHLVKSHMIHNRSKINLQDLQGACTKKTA

[6] = molecular target: T3, Nitric oxide synthase, inducible (Mus musculus, UniProt P29477); design: species or system Escherichia coli;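 also: inhibition of iNOS enzyme activity measured with L-arginine as substrate; in other assays of this panel Not Active means under 50% inhibition at 10 µM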
T3 sequence (P29477 whole entry): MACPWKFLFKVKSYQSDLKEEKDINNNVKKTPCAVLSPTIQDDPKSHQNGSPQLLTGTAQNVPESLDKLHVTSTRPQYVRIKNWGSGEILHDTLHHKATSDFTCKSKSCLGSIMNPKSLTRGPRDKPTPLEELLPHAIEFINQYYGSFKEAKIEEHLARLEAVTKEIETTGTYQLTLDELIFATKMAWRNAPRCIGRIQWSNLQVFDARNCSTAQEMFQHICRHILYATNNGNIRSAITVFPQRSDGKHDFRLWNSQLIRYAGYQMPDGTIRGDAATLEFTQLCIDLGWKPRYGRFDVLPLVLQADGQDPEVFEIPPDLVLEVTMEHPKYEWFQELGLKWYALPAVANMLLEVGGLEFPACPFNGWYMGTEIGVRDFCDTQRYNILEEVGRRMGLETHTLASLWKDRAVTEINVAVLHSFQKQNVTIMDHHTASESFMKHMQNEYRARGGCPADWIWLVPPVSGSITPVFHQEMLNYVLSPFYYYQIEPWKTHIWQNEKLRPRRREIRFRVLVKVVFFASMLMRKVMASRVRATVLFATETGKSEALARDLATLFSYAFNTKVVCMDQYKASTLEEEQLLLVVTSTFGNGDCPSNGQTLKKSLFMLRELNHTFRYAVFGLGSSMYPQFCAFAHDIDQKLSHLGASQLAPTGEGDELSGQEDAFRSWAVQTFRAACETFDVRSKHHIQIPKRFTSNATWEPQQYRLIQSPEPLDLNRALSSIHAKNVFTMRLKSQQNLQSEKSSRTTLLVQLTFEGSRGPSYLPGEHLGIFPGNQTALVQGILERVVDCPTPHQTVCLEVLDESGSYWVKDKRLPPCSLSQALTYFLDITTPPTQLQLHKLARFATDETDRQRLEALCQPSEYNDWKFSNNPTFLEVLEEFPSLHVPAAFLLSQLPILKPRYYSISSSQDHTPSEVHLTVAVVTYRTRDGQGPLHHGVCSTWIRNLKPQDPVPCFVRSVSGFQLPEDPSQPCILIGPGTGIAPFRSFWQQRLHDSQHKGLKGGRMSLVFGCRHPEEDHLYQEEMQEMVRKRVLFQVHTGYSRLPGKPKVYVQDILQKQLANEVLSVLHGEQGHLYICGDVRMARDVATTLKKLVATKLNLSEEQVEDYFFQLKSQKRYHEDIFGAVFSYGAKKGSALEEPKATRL

[7] = molecular target: Platelet-activating factor receptor (Homo sapiens, UniProt P25105); type: tissue-based; also: in other assays of this panel Not Active means under 50% inhibition at 10 µM
Chain of Platelet-activating factor receptor (P25105 whole entry): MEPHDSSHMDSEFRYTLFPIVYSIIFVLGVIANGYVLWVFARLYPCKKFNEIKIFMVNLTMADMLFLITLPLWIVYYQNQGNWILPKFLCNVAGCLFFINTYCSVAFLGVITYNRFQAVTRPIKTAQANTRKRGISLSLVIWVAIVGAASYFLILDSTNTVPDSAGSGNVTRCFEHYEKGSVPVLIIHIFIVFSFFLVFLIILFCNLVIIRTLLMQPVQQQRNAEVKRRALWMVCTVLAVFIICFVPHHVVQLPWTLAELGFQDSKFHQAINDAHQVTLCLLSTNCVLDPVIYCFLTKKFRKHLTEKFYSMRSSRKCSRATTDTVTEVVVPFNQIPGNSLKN

Cc1[nH]c(=O)c(C#N)cc1-c1ccncc1 [MILRINONE]
Not Active: IC50 [1] | Ki [1] | IC50 [2] | Ki [2] | IC50 [3] | Ki [3] | IC50 [4] | IC50 [5] | IC50 [6] | IC50 [7]

CO[C@@]12[C@H](COC(N)=O)C3=C(C(=O)C(C)=C(N)C3=O)N1C[C@@H]1N[C@@H]12 [MITOMYCIN]
Not Active: IC50 [1] | Ki [1] | IC50 [2] | Ki [2] | IC50 [3] | Ki [3] | IC50 [4] | IC50 [5] | IC50 [6] | IC50 [7]

CCOc1cc(N)c(Cl)cc1C(=O)NCC1CN(Cc2ccc(F)cc2)CCO1 (stereo not given) [MOSAPRIDE]
Not Active: IC50 [1] | Ki [1] | IC50 [2] | Ki [2] | IC50 [3] | Ki [3] | IC50 [4] | IC50 [5] | IC50 [6] | IC50 [7]

CCN(CC)N=O [N-NITROSODIETHYLAMINE]
Not Active: IC50 [1] | Ki [1] | IC50 [2] | Ki [2] | IC50 [3] | Ki [3] | IC50 [4] | IC50 [5] | IC50 [6] | IC50 [7]

O=C1CC[C@@]2(O)[C@H]3Cc4ccc(O)c5c4[C@@]2(CCN3CC2CC2)[C@H]1O5 [NALTREXONE]
Not Active: IC50 [1] | Ki [1] | IC50 [2] | Ki [2] | IC50 [3] | Ki [3] | IC50 [4] | IC50 [5] | IC50 [6] | IC50 [7]

Oc1ccc(/C=C/c2cc(O)cc(O)c2)cc1 [RESVERATROL]
Not Active: IC50 [1] | Ki [1] | IC50 [2] | Ki [2] | IC50 [3] | Ki [3] | IC50 [4] | IC50 [5] | IC50 [6] | IC50 [7]

CC(N)C12CC3CC(CC(C3)C1)C2 (stereo not given) [RIMANTADINE]
Not Active: IC50 [1] | Ki [1] | IC50 [2] | Ki [2] | IC50 [3] | Ki [3] | IC50 [4] | IC50 [5] | IC50 [6] | IC50 [7]

CS(=O)(=O)c1ccc(C2=C(c3ccccc3)C(=O)OC2)cc1 [ROFECOXIB]
Not Active: IC50 [1] | Ki [1] | IC50 [2] | Ki [2] | IC50 [3] | Ki [3] | IC50 [4] | IC50 [5] | IC50 [6] | IC50 [7]

C=CCc1ccc2c(c1)OCO2 [SAFROLE]
Not Active: IC50 [1] | Ki [1] | IC50 [2] | Ki [2] | IC50 [3] | Ki [3] | IC50 [4] | IC50 [5] | IC50 [6] | IC50 [7]
